From patent publication US8178324B2, “Deracemisation of amines” (Ingenza Limited, priority 2002, dated 2012)
“Also recorded” adds a separate entry of the source. Read-outs that look alike come from different tables or passages of the source.

Key:
[1] = molecular target: T1, N336S mutant A. niger monoamine oxidase (Aspergillus niger, UniProt P46882, A300V/K348M/L304V/N336S/R450G); type: biochemical; parameters: key to Relative Rate (symbol): *: No measurable rate; conditions: for Relative Rate: relative to (S)-α Methylbenzylamine = 1
T1 construct: made in house; host or cells: E. coli BL21(DE3), pET16b
Experimental: (§1) 5 ml phosphate buffer (1 M, pH 7.6)
(§2) 500 μl 2,4,6-tribromo-3-hydroxybenzoic acid (2% in DMSO)
(§3) 37.5 μl 4-aminoantipyrine (1.5 M) • 30 μl amine substrate (final concentration 0.015-5 mM) • 44.4 ml water
(§4) Assay Conditions: • 990 μl assay mixture • 5 μl horse radish peroxidase (1 mg·ml^−1) • 10 μl enzyme
(§5) The spectrophotometer was blanked against assay mixture and HRP. Enzyme was added and the absorbance at 500 nm measured at 3 s intervals for a 10 minute period.
The activity of the mutant enzyme described above was studied in relation to a variety of amine substrates. […]

[2] = molecular target: T2, mutant A. niger monoamine oxidase (N336S) (Aspergillus niger, UniProt P46882, A300V/K348M/L304V/N336S/R450G); assay: Colorimetric hydrogen peroxide amine oxidase assay, purified mutant enzyme (N336S); type: biochemical
T2 construct: made in house; host or cells: E. coli BL21(DE3), pET16b
Experimental: (§6) The wild-type enzyme was also purified by the same protocol and the two enzymes compared for substrate specificity and enantioselectivity.
The mutated gene was also sequenced and the sequence is shown in SEQ ID NO: 2. There was a single amino acid change from the wild-type enzyme with serine replacing asparagine at position 336.
LB medium (6×300 ml) containing ampicillin (100 μg·ml^−1) in 1 L baffled flasks was inoculated with a single colony of monoamine oxidase mutant from an LB agar plate. Cultures were incubated at 30° C. for 22 hours (OD600˜3.6) then harvested and washed with phosphate buffer (50 mM, pH 8) to yield a yellow-brown pellet (11.2 g).
The pellet was resuspended in Tris/HCl buffer (25 mM, pH 7.8, 30 ml) and sonicated on ice (30 s on, 30 s off for 10 minutes). The suspension was then centrifuged (20,000 rpm, 4° C.) until clear supernatant was obtained and the supernatant dialysed against Tris/HCl buffer (25 mM, pH 7.8). The cell free extract was filtered through 0.45 μm sterile membrane and chromatographed on a QSepharose anion exchange column. Fractions were assayed using colorimetric hydrogen peroxide based assay and active fractions were stored at −80° C. The active fraction has a protein content of 1 mg·ml^−1, and a specific activity of 0.193 U·mg^−1 against amylamine.
as §1, §2, §3, §4, §5
(§7) The Km values were calculated using ‘KaleidaGraph for Windows’ (Synergy Software). For calculation of the kcat, the active enzyme concentration was determined by estimating the FAD content from the absorbance at 458 nm using an extinction coefficient of 11 mM^−1 cm^−1 (see ref 12).

MAO mutant N336S = molecular target: T3, MAO mutant N336S (Aspergillus niger, UniProt P46882, A300V/K348M/L304V/N336S/R450G); assay: Stereoinversion reaction with MAO mutant N336S and ammonia-borane, HPLC monitoring; type: biochemical; conditions: ammonia-borane, 30° C., 24 hours
T3 construct: made in house; host or cells: E. coli BL21(DE3), pET16b
Experimental: More Specifically, MAO mutant N336S (100 μl of 0.193 U·ml^−1=0.02 U) was added to a solution of L-AMBA (0.13 μl, final concentration=0.4 mM) and ammonia-borane complex (10 μl of 4M solution, final concentration=80 mM, 200 eq) in phosphate buffer (400 μl, 20 mM, pH8). A 10 μl aliquot was diluted in 990 μl perchloric acid, pH 1.5 and analysed by HPLC. The reaction mixture was incubated at 30° C. and the reaction monitored by HPLC at regular intervals until no further reaction was observed.
Analytical conditions: Column=Chiralcel CrownPak CR+ • Mobile phase=100% perchloric acid, pH 1.5 • Flow rate=0.8 ml·min^−1 • Detection=200 nm • Temperature=25° C. • r.t. (L-AMBA)=12.8 min • r.t. (D-AMBA)=16.5 min

[3] = molecular target: T4, wild-type A. niger MAO-N enzyme (Aspergillus niger, UniProt P46882, A300V/K348M/L304V/R450G); assay: Colorimetric hydrogen peroxide (HRP/TBHBA/4-aminoantipyrine) amine oxidase assay, purified wild-type enzyme; type: biochemical; conditions: for kcat, Wild-type Enzyme: purified wild-type enzyme, active enzyme from FAD absorbance at 458 nm
T4 construct: made in house; host or cells: E. coli BL21(DE3), pET16b
Experimental: as §6, §1, §2, §3, §4, §5, §7

[4] = molecular target: T5, mutant amine oxidase (N336S) (Aspergillus niger, UniProt P46882, A300V/K348M/L304V/N336S/R450G); assay: Chiral HPLC (Chiralcel CrownPak CR+) check of oxidation by the mutant; type: biochemical; conditions: after 24 h
T5 construct: made in house; host or cells: E. coli BL21(DE3), pET16b
Experimental: The data reveal that the activity of the mutant amine oxidase towards L-AMBA (kcat=8.0 min-1) is 47 fold higher than the wild-type (kcat=0.17 min-1). Moreover the selectivity of the mutant for the L-enantiomer versus D-AMBA (ca. 100:1) has also been increased relative to the wild type enzyme (ca. 17:1). Thus the outcome of the in vitro evolution experiments has been to simultaneously improve both the enantioselectivity and catalytic activity of the enzyme. For comparison, the activity towards the best substrate for the wild-type enzyme, namely amylamine, and also benzylamine, is presented.

[5] = molecular target: Type II monoamine oxidase from Aspergillus niger (MAO-N) (Aspergillus niger, UniProt P46882, A300V/K348M/L304V/R450G); conditions: literature refs 10-12; cited from earlier work
Sequence of Type II monoamine oxidase from Aspergillus niger (MAO-N) (P46882 whole entry A300V/L304V/K348M/R450G): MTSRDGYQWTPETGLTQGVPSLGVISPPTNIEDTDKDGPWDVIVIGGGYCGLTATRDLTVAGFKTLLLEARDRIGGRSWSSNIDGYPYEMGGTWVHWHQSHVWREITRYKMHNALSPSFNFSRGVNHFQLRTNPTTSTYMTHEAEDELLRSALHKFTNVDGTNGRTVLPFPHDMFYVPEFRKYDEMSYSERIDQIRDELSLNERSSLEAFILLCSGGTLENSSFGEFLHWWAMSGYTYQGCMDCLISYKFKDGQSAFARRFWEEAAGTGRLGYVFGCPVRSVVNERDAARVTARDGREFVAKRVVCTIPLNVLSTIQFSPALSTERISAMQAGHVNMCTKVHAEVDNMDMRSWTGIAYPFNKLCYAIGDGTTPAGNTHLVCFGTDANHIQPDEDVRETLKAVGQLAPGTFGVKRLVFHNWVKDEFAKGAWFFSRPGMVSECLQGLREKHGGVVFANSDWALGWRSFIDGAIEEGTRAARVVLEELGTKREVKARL

T2 sequence (P46882 whole entry A300V/L304V/N336S/K348M/R450G): as the sequence (P46882 whole entry A300V/L304V/K348M/R450G) above, with N336S counted along it
T1 sequence (P46882 whole entry A300V/L304V/N336S/K348M/R450G): as the sequence (P46882 whole entry A300V/L304V/K348M/R450G) above, with N336S counted along it
T4 sequence (P46882 whole entry A300V/L304V/K348M/R450G): as the sequence (P46882 whole entry A300V/L304V/K348M/R450G) above
T5 sequence (P46882 whole entry A300V/L304V/N336S/K348M/R450G): as the sequence (P46882 whole entry A300V/L304V/K348M/R450G) above, with N336S counted along it
T3 sequence (P46882 whole entry A300V/L304V/N336S/K348M/R450G): as the sequence (P46882 whole entry A300V/L304V/K348M/R450G) above, with N336S counted along it

SMILES | Relative Rate (symbol) [1] | Relative Rate [1] | also measured
Cc1ccc([C@@H](C)N)cc1 | * | – | –
Cc1ccc([C@H](C)N)cc1 | – | 0.28 | –
CC(N)c1ccc(Br)cc1 (racemic) [(rac)-4-Bromo-α-phenylethylamine] | * | – | –
CC(N)c1ccccc1 (racemic) [(rac)-α Methylbenzylamine] | * | – | –
CC(C)CC(C)N (stereo not drawn) [1,3-Dimethylbutylamine] | – | 1.8 | –
CC1CCCCC1N (stereo not drawn) [2-Methylcyclohexylamine] | – | 0.43 | –
COc1ccc([C@@H](C)N)cc1 [(R)-1-4-Methoxyphenylethylamine] | – | 0.13 | –
C[C@@H](N)C(C)(C)C [(R)-3-3-Dimethyl-2-butylamine] | * | – | –
CC(C)[C@@H](C)N [(R)-3-Methyl-2-butylamine] | * | – | –
C[C@@H](N)c1ccc(Br)cc1 [(R)-4-Bromo-α-phenylethylamine] | * | – | –
C[C@@H](N)c1ccc([N+](=O)[O-])cc1 [(R)-α-Methyl-4-nitrobenzylamine] | – | 0.06 | –
COc1ccc([C@H](C)N)cc1 [(S)-1-4-Methoxyphenylethylamine] | – | 0.81 | –
C[C@H](N)C(C)(C)C [(S)-3-3-Dimethyl-2-butylamine] | – | 1.4 | –
CC(C)[C@H](C)N [(S)-3-Methyl-2-butylamine] | – | 5.4 | –
C[C@H](N)c1ccc(Br)cc1 [(S)-4-Bromo-α-phenylethylamine] | – | 0.24 | –
C[C@H](N)c1ccc([N+](=O)[O-])cc1 [(S)-α-Methyl-4-nitrobenzylamine] | – | 0.91 | –
CC(NC(C)c1ccccc1)c1ccccc1 (stereo not drawn) [Bis(α-methyl)benzylamine] | * | – | –
CC(N)c1ccccc1 [D-AMBA, α-methylbenzylamine] | * | – | kcat, Mutant Enzyme ([2]; purified N336S mutant): 0.08 min⁻¹; conversion under stereoinversion conditions (MAO mutant N336S): no conversion; also recorded: no reaction was observed; activity of the wild-type A. niger MAO-N enzyme ([3]; listed as D-enantiomer): even slower oxidation; kcat, Wild-type Enzyme [3]: 0.01 min⁻¹; oxidation by the mutant seen by chiral HPLC [4]: no detectable conversion
CCCCCCN [Hexylamine] | – | 18.6 | –
CC(N)c1ccccc1 [L-AMBA, L-α-methylbenzylamine] | – | 1 | activity (kcat) of the mutant relative to the wild-type ([2]; mutant kcat versus wild-type kcat): 47 fold; Km ([2]; purified N336S mutant): 400 µM; kcat, Mutant Enzyme ([2]; purified N336S mutant): 8.0 min⁻¹; activity of the wild-type A. niger MAO-N enzyme [3]: very low, but measurable activity; kcat, Wild-type Enzyme [3]: 0.17 min⁻¹; oxidation by the mutant seen by chiral HPLC [4]: complete oxidation
CCCCCCCN [N-heptylamine] | – | 12.1 | –
CCCCCN [amylamine] | – | 25.2 | reported activity of MAO-N [5]: high activity; kcat, Wild-type Enzyme [3]: 1000 min⁻¹
NCc1ccccc1 [benzylamine] | – | – | kcat, Mutant Enzyme ([2]; purified N336S mutant): 196 min⁻¹; reported activity of MAO-N [5]: active, albeit at a lower rate; kcat, Wild-type Enzyme [3]: 371 min⁻¹
CCCCN [butylamine] | – | – | reported activity of MAO-N [5]: high activity
